Measurements from ChEMBL document CHEMBL1156056, “Phosphoinositide-3-kinase (PI3K) inhibitors: identification of new scaffolds using virtual screening” (Bioorg Med Chem Lett, 2009).

Tests used:
[1] = target: T1, Phosphatidylinositol 4,5-bisphosphate 3-kinase catalytic subunit delta isoform (Homo sapiens, UniProt O00329); assay: Inhibition of recombinant PI3Kdelta expressed in baculovirus-infected Sf21 cells
T1 sequence (O00329 whole entry): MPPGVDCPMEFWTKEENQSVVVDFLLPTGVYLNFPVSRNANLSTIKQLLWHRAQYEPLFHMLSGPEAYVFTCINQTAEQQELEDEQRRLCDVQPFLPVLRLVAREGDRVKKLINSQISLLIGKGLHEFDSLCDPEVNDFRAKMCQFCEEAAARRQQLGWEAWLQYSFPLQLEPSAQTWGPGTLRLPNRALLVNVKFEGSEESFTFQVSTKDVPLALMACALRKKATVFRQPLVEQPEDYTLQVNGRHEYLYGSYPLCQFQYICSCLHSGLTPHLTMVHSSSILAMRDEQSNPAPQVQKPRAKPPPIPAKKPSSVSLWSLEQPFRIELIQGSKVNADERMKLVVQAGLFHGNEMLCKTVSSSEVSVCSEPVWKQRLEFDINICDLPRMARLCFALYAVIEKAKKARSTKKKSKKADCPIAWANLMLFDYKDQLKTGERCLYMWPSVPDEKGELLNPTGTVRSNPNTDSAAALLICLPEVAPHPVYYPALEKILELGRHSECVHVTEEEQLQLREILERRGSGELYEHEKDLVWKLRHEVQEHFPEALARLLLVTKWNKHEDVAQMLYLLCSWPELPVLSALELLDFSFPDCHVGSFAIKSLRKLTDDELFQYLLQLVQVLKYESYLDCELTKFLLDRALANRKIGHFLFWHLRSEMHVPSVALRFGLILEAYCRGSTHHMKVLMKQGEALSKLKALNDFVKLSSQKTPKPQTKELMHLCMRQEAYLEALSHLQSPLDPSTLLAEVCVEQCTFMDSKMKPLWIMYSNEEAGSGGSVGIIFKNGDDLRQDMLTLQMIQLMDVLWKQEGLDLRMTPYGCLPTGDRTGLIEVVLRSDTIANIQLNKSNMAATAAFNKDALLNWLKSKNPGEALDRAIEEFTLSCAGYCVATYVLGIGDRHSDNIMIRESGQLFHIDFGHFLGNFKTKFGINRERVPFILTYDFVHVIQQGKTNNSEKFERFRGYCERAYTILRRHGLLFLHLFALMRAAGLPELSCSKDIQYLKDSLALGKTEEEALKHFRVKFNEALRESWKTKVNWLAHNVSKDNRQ

[2] = target: T2, Phosphatidylinositol 4,5-bisphosphate 3-kinase catalytic subunit beta isoform (Homo sapiens, UniProt P42338); assay: Inhibition of human recombinant PI3Kbeta expressed in baculovirus-infected Sf21 cells
Target sequence in this assay (P42338 whole entry, canonical isoform): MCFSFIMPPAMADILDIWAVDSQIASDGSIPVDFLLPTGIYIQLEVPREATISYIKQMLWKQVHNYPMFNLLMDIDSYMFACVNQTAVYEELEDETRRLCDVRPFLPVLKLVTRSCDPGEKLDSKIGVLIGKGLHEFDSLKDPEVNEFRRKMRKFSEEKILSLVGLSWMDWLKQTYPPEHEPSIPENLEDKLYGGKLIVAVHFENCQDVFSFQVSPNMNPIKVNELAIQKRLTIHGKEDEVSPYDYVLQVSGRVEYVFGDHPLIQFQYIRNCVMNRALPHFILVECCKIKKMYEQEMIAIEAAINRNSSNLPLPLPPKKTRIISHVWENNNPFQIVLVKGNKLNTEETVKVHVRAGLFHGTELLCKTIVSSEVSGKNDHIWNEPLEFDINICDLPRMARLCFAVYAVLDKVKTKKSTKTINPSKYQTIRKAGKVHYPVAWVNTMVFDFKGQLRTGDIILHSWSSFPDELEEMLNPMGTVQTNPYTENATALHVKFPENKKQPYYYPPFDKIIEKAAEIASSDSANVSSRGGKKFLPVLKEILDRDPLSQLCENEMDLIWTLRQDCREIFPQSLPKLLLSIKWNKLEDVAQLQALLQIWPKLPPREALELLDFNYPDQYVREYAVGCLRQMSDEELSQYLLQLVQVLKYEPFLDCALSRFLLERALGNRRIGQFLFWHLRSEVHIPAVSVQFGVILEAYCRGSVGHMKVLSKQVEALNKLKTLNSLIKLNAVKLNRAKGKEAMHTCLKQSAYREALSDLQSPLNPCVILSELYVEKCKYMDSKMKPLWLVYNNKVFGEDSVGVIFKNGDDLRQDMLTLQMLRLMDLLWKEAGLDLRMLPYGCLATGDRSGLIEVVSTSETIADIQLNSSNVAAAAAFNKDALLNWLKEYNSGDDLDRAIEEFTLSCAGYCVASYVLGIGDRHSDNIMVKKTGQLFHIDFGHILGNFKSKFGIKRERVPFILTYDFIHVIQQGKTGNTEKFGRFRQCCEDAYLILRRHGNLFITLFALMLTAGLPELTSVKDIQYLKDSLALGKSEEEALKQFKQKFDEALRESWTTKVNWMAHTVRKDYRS

[3] = target: Phosphatidylinositol 4,5-bisphosphate 3-kinase catalytic subunit alpha isoform (Mus musculus, UniProt P42337); assay: Inhibition of mouse recombinant PI3Kalpha expressed in baculovirus-infected Sf21 cells
[4] = Inhibition of bovine recombinant PI3Kgamma expressed in baculovirus-infected Sf21 cells at 100 uM; settings: Bos taurus
[5] = target: T3, Phosphatidylinositol 4,5-bisphosphate 3-kinase catalytic subunit delta isoform (Homo sapiens) (UniProt O00329); assay: Inhibition of recombinant PI3Kdelta expressed in baculovirus-infected Sf21 cells at 100 uM
T3 sequence (whole entry): T1 sequence (O00329 whole entry)

[6] = target: T2, Phosphatidylinositol 4,5-bisphosphate 3-kinase catalytic subunit beta isoform; assay: Inhibition of human recombinant PI3Kbeta expressed in baculovirus-infected Sf21 cells at 100 uM
Target sequence in this assay (P42338 whole entry, looked up, canonical isoform): as the sequence (P42338 whole entry, canonical isoform) above

[7] = Inhibition of bovine recombinant PI3Kgamma expressed in baculovirus-infected Sf21 cells; parameters: species or system Bos taurus
[8] = target: Phosphatidylinositol 4,5-bisphosphate 3-kinase catalytic subunit alpha isoform (Mus musculus) (UniProt P42337); assay: Inhibition of mouse recombinant PI3Kalpha expressed in baculovirus-infected Sf21 cells at 100 uM
[9] = Selectivity for PI3Kgamma over PI3Kalpha
[10] = Selectivity for PI3Kgamma over PI3Kdelta
[11] = Selectivity for PI3Kgamma over PI3Kbeta

Sequence of Phosphatidylinositol 4,5-bisphosphate 3-kinase catalytic subunit alpha isoform (Mus musculus) (P42337 whole entry, canonical isoform): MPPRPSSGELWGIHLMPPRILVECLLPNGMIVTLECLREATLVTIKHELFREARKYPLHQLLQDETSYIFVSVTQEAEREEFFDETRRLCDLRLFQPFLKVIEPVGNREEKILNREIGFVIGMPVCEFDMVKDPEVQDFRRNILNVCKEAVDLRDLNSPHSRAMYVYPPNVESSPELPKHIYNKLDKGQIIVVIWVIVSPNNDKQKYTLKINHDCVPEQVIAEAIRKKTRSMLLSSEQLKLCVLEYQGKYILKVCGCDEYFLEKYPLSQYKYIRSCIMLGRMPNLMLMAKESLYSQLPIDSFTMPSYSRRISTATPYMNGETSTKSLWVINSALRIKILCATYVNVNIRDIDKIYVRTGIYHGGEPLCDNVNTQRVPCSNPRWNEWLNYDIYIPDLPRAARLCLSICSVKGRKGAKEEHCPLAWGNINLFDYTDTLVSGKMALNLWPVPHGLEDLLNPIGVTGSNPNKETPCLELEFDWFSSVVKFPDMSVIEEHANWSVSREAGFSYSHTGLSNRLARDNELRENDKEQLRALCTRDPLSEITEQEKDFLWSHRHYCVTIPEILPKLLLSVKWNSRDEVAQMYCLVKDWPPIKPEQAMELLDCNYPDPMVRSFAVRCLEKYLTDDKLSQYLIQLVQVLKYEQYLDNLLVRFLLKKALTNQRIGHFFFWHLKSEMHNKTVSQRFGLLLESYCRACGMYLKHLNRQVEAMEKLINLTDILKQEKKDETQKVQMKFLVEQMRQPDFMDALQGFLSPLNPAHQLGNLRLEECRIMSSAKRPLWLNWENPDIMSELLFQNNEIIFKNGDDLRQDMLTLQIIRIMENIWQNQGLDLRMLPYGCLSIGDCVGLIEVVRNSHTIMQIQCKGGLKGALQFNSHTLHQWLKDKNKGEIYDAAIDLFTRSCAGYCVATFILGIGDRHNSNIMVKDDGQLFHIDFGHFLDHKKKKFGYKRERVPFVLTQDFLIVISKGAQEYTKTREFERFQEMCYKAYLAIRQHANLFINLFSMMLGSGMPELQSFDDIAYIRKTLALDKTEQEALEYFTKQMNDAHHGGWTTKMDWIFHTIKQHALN
Sequence of Phosphatidylinositol 4,5-bisphosphate 3-kinase catalytic subunit alpha isoform (P42337 whole entry, canonical isoform): as above

IC50 [1] [µM] | IC50 [2] [µM] | IC50 [3] [µM] | inhibition [5] [%] | inhibition [6] [%] | IC50 [7] [µM] | inhibition [8] [%] | Ratio [9] | Ratio [10] | Ratio [11] | SMILES | inhibition [4] [%]
47 | > 100 | 38 | > 40 | > 40 | 16 | > 40 | – | – | – | Cc1ccc2cc3c(OC(=O)COc4ccccc4)nn(C)c3nc2c1 | > 40
– | – | > 100 | > 40 | > 40 | 75 | > 40 | – | – | – | COc1ccccc1-c1nc(-c2cc3cc(C)ccc3[nH]c2=O)no1 | > 40
> 100 | 12 | 19 | > 40 | > 40 | 6 | > 40 | – | – | – | O=C(CCn1c(=O)oc2cc(Cl)ccc21)Nc1ccccc1 | > 40
– | – | – | > 40 | > 40 | – | > 40 | – | – | – | O=c1cc(N2CCOCC2)oc2c(-c3ccccc3)cccc12 [LY-294002] | > 40
– | > 100 | 78 | > 40 | > 40 | > 100 | > 40 | – | – | – | COc1nc(-c2ccccc2)ccc1-c1noc(-c2ccncc2)n1 | > 40
0.9 | 3 | 0.9 | > 40 | > 40 | 4 | > 40 | – | – | – | COc1cccc(-c2nc(-c3cc4cc(OC)ccc4[nH]c3=O)no2)c1 | > 40
– | – | – | – | – | – | – | 7.5 | > 30 | > 30 | O=C1NC(=O)/C(=C/c2ccc3nccnc3c2)S1 | –
> 100 | > 100 | > 100 | > 40 | > 40 | 71 | > 40 | – | – | – | COC(=O)c1ccc(CSc2ncnc3sc(C)c(C)c23)o1 | > 40
4 | 14 | 3 | > 40 | > 40 | 12 | > 40 | – | – | – | O=c1oc2cc(O)ccc2cc1-c1nc2ccccc2s1 | > 40
